The values that follow come from patent publication US5750531A, “Pyrimidine derivatives and processes for the preparation thereof” (Yuhan Corporation, priority 1994, dated 1998).

Molecules are shown by their SMILES. pIC50: −log10 of the molar value. Structures can show the parent of a compound that is named as a salt.

Assay [1] concerns the target proton pump(H^+ /K^+ ATPase). The assay can be described thus: Inhibition of proton pump(H^+ /K^+ ATPase) activity. The format is biochemical. Particulars: pH 6.0, 37° C., 30 minutes preincubation and 30 minutes reaction; read-out: IC50 Test compound. How it is done: Test 1: Inhibition of proton pump(H^+ /K^+ ATPase) activity
A proton pump enzyme source was prepared by the same method as in Experiment 1-1 of WO 94/14795. Further, the inhibitory effect of proton pump activity was measured by the same method as in Experiment 1-2 of WO 94/14795.
Namely, the proton pump activity stimulated by Mg^++ was used as a negative comparative group, and the activity stimulated by Mg^++ and K^+ was used as a positive comparative group. The comparative compound was omeprazole.
Test tubes were divided into 4 groups: Group 1 as negative comparative group(n=3), Group 2 as positive comparative group(n=3), Group 3(n=5×2) to be administered with the compound of the present invention and Group 4(n=5×2) to be administered with the comparative compound.
The inhibitory effects of Groups 3 and 4 on proton pump activity were measured by employing the compound prepared in Example and omeperazole, respectively, each of which was dissolved in dimethylsulfoxide at 5 different concentrations.
To each of Groups 1, 2, 3 and 4 were added 100 μl of magnesium chloride(40 mM) dissolved in 40 mM Tris-HCl buffer(pH 6.0) and 100μ of the enzyme source. Then, 50μ of potassium chloride(50 mM) and 50 μl of ammonium chloride(6 mM) dissolved in 40 mM Tris-HCl buffer(pH 6.0) were added to all groups except for Group 1.
10 μl of dimethylsulfoxide was added to each of Groups 1 and 2; and to Group 3 was added 10 μl of the solution in which the compound prepared in Example was dissolved in dimethylsulfoxide at 5 different concentrations(n=5×2). To Group 4, 10 μl of the solution prepared by dissolving omeprazole in dimethylsulfoxide at 5 different concentrations(37.6, 21.4, 12.2, 7.0 and 4.0 μM) was added(n=5×2). 40 mM Tris-HCl buffer(pH=6.0) was added thereto so as to make the total volume 400 μl.
Thereafter, the test tubes of each Group were placed at 37° C. for 30 minutes for the preincubation. 100 μl of ATP solution (6.6 mM) was added until the reaction volume became 500 μl. After the reaction was carried out at 37° C. for 30 minutes, 25% cold trichloroacetic acid was added to terminate the enzyme reaction. The released inorganic phosphate was measured by an automatic analyzer(Express 550, Corning).
The difference between Group 1 and Group 2 represents the proton pump activity activated by K^+ only. The inhibition percentages of Groups 3 and 4 were calculated from Litchfield-wilcoxon equation[see, e.g., J. pharmacol. Exp. Ther., 96, 99(1949)]. The concentrations of the test compounds which inhibit 50% of the proton pump activity are represented as IC50 in Table 1.

The next assay concerns gastric secretion. The assay can be described thus: Inhibition of gastric secretion (pylorus ligation, Shay method). The class given is in vivo, Male Sprague-Dawley rats. Particulars: 20 mg/kg intraduodenally, 5 hours; for Rel. Conc.: acid concentration relative to omeprazole; for Relative Acid Output: acid output relative to omeprazole; for Rel. Vol.: gastric juice volume relative to omeprazole. As to the method:
Inhibition of gastric secretion […] Under ether anesthesia, the abdomen was incised, and the pylorus was ligated. […] After closing the abdominal cavity, the rats were placed for 5 hours and then killed by cervical dislocation. The stomach was extracted to obtain gastric juice. The gastric juice was centrifuged at 1,000 g to remove precipitates. The amount and acidity of the gastric juice were measured. Relative volumes, relative acid concentrations and relative acid outputs of the test compounds were calculated from equations(I), (II) and (III) and the results are shown in Table 2. […] Group 3) (II) […] (III)

The term pIC50 denotes the IC50 on a negative log10 scale, so that one unit is a factor of ten. On to `Cc1ccc(Nc2nc(C)c(C)c(N3CCc4ccccc4C3C)n2)cc1.Cl` (stereo not drawn) [Example 25, 5,6-dimethyl-2-(4-methylphenylamino)-4-(1-methyl-1,2,3,4-tetrahydroisoquinolin-2-yl)pyrimidine hydrochloride], for which, in assay [1], the pIC50 is 5.85. In addition, in the assay with gastric secretion, the Rel. Conc. was determined as 0.8, the “Relative Acid Output” value was 0.92 and the Rel. Vol. was determined as 1.06.
Regarding `CC1c2ccccc2CCN1c1nc(N(C)c2ccccc2)nc2c1CCC2` (stereo not drawn) [Example 31, 2-(N-methylphenylamino)-4-(1-methyl-1,2,3,4-tetrahydroisoquinolin-2-yl)cyclopenta[d]pyrimidine hydrochloride], the pIC50 in assay [1] is roughly 4.82. In the assay on gastric secretion, the Rel. Conc. came to 0.21, the “Relative Acid Output” value is recorded as 0.74 and the Rel. Vol. was 0.83.
Turning to `CCCc1cc(N2CCc3ccccc3C2C)nc(Nc2ccc(F)cc2C)n1.Cl` (stereo not drawn) [Example 9, 2-(2-methyl-4-fluorophenylamino)-4-(1-methyl-1,2,3,4-tetrahydroisoquinolin-2-yl)-6-propylpyrimidine hydrochloride], the pIC50 in assay [1] is roughly 5.00. Besides, in the assay with gastric secretion, the “Relative Acid Output” value is listed as 0.3 and the Rel. Vol. was 0.4.
Regarding `Cc1nc(Nc2ccc(F)cc2)nc(N2CCc3ccccc3C2)c1C.Cl` [Example 42, 5,6-dimethyl-2-(4-fluorophenylamino)-4-(1,2,3,4-tetrahydroisoquinolin-2-yl)pyrimidine hydrochloride], in assay [1], the pIC50 is 5.82. For the same compound, in the assay on gastric secretion, the Rel. Conc. was 1.4, the “Relative Acid Output” value is 1.15 and the Rel. Vol. was determined as 1.15.
On to `Cc1cc(Nc2ccc(F)cc2C)nc(N2CCc3ccccc3C2C)n1.Cl` (stereo not drawn) [Example 57, 6-methyl-4-(2-methyl-4-fluorophenylamino)-2-(1-methyl-1,2,3,4-tetrahydroisoquinolin-2-yl)pyrimidine hydrochloride], for which the pIC50 in assay [1] was 5.48. Besides, in the assay with gastric secretion, the Rel. Conc. worked out at 0.27, the “Relative Acid Output” value is 0.61 and the Rel. Vol. was found to be 1.2.
With `CCc1cc(N2CCc3ccccc3C2C)nc(Nc2ccc(F)cc2)n1.Cl` (stereo not drawn) [Example 6, 6-ethyl-2-(4-fluorophenylamino)-4-(1-methyl-1,2,3,4-tetrahydroisoquinolin-2-yl)pyrimidine hydrochloride], the pIC50 in assay [1] was 5.37. Besides, in the assay on gastric secretion, the Rel. Conc. was 0.28, the “Relative Acid Output” value is listed as 0.64 and the Rel. Vol. turned out to be 0.64.
On to `Cc1nc(Nc2ccc(F)cc2)nc(N2CCc3ccccc3C2C)c1C.Cl` (stereo not drawn) [Example 15, 5,6-dimethyl-2-(4-fluorophenylamino)-4-(1-methyl-1,2,3,4-tetrahydroisoquinolin-2-yl)pyrimidine hydrochloride], for which the pIC50 in assay [1] was 5.80. In addition, in the assay on gastric secretion, the Rel. Conc. amounted to 1.06, the “Relative Acid Output” value is listed as 0.99 and the Rel. Vol. worked out at 0.8.
On to `Cc1cc(N2CCc3ccsc3C2C)nc(Nc2ccc(F)cc2)n1.Cl` (stereo not drawn) [Example 53, 6-methyl-4-(7-methyl-4,5,6,7-tetrahydrothieno[2,3-c]pyridin-6-yl)-2-(4-fluorophenylamino)pyrimidine hydrochloride], for which the pIC50 in assay [1] is 5.68. In the assay on gastric secretion, the Rel. Conc. was determined as 1.14, the “Relative Acid Output” value is reported as 0.55 and the Rel. Vol. worked out at 0.47.
In the case of `Cc1cc(N2CCc3ccsc3C2C)nc(Nc2ccc(F)cc2C)n1.Cl` (stereo not drawn) [Example 52, 6-methyl-2-(2-methyl-4-fluorophenylamino)-4-(7-methyl-4,5,6,7-tetrahydrothieno[2,3-c]pyridin-6-yl)pyrimidine hydrochloride], the pIC50 in assay [1] is 6.30. In the assay with gastric secretion, the Rel. Conc. came to 0.94, the “Relative Acid Output” value was 1.12 and the Rel. Vol. was determined as 1.34.
`Cc1cc(F)ccc1Nc1nc(N2CCc3ccsc3C2C)nc(C)c1C.Cl` (stereo not drawn) [Example 77, 5,6-dimethyl-4-(2-methyl-4-fluorophenylamino)-2-(7-methyl-4,5,6,7-tetrahydrothieno[2,3-c]pyridin-6-yl)pyrimidine hydrochloride]: the negative-log IC50 (pIC50) in assay [1] is 5.44. For the same compound, in the assay on gastric secretion, the Rel. Conc. came out at 1.63, the “Relative Acid Output” value is 1.30 and the Rel. Vol. worked out at 1.48.
As to `Cc1cc(N2CCc3ccccc3C2)nc(Nc2ccc(F)cc2)n1.Cl` [Example 35, 6-methyl-2-(4-fluorophenylamino)-4-(1,2,3,4-tetrahydroisoquinoline-2-yl)pyrimidine hydrochloride], the pIC50 in assay [1] is 5.60. In the assay on gastric secretion, the Rel. Conc. worked out at 0.84, the “Relative Acid Output” value is 0.94 and the Rel. Vol. stood at 1.05.
`CCc1cc(N2CCc3ccccc3C2C)nc(Nc2ccccc2C)n1.Cl` (stereo not drawn) [Example 8, 6-ethyl-2-(2-methylphenylamino)-4-(1-methyl-1,2,3,4-tetrahydroisoquinolin-2-yl)pyrimidine hydrochloride]: the pIC50 in assay [1] was roughly 4.90. Besides, in the assay on gastric secretion, the Rel. Conc. amounted to 0.12, the “Relative Acid Output” value was 0.42 and the Rel. Vol. turned out to be 0.43.
As to `CCc1cc(Nc2ccc(F)cc2C)nc(N2CCc3ccccc3C2C)n1.Cl` (stereo not drawn) [Example 61, 6-Ethyl-4-(2-methyl-4-fluorophenylamino)-2-(1-methyl-1,2,3,4-tetrahydroisoquinolin-2-yl)pyrimidine hydrochloride], the pIC50 in assay [1] is roughly 4.90. In addition, in the assay on gastric secretion, the Rel. Conc. was 0.22, the “Relative Acid Output” value is listed as 0.40 and the Rel. Vol. was 0.32.
Taken in the same sequence, the figures for `Cc1cc(N2CCc3ccccc3C2C)nc(Nc2ccc(F)cc2)n1.Cl` (stereo not drawn) [Example 3, 6-methyl-4-(1-methyl-1,2,3,4-tetrahydroisoquinolin-2-yl)-2-(4-fluorophenylamino)pyrimidine hydrochloride] were 5.46, 0.81, 0.87 and 0.76.
For the compound `CCc1cc(N(C)c2ccccc2)nc(N2CCc3ccccc3C2)n1.Cl` [Example 64, 6-ethyl-4-(N-methylphenylamino)-2-(1,2,3,4-tetrahydroisoquinolin-2-yl)pyrimidine hydrochloride], the negative-log IC50 (pIC50) in assay [1] is roughly 5.00. In addition, in the assay on gastric secretion, the Rel. Conc. turned out to be 0.26, the “Relative Acid Output” value was 0.40 and the Rel. Vol. was 0.34.
Take `Cc1cc(F)ccc1Nc1nc(N2CCc3ccccc3C2C)nc2c1CCC2` (stereo not drawn) [Example 81, hydrochloride]: in assay [1], the pIC50 is 6.40. In addition, in the assay on gastric secretion, the Rel. Conc. worked out at 0.47, the “Relative Acid Output” value stood at 0.68 and the Rel. Vol. was 0.56.
Taken in the same sequence, the figures for `Cc1nc(N2CCc3ccccc3[C@@H]2C)nc(Nc2ccc(F)cc2)c1C.Cl` [Example 70, (S)-5,6-dimethyl-4-(4-fluorophenylamino)-2-(1-methyl-1,2,3,4-tetrahydroisoquinolin-2-yl)pyrimidine hydrochloride] were 5.46, 0.22, 0.61 and 1.3.
As to `Cc1cc(F)ccc1Nc1nc(N2CCc3ccccc3C2)nc(C)c1C.Cl` [Example 74, 5,6-dimethyl-4-(2-methyl-4-fluorophenylamino)-2-(1,2,3,4-tetrahydroisoquinolin-2-yl)pyrimidine hydrochloride], in assay [1], the negative logarithm of the IC50 (pIC50) was 6.30. For the same compound, in the assay on gastric secretion, the Rel. Conc. came to 1.49, the “Relative Acid Output” value is 1.16 and the Rel. Vol. was determined as 1.22.
Taken in the same sequence, the figures for `Cc1nc(N2CCc3ccsc3C2C)nc(Nc2ccc(F)cc2)c1C.Cl` (stereo not drawn) [Example 78, 5,6-dimethyl-2-(7-methyl-4,5,6,7-tetrahydrothieno[2,3-c]pyridin-6-yl)-4-(4-fluorophenylamino)pyrimidine hydrochloride] were 5.07, 1.75, 1.09 and 1.06.
